In experiment [1] the test system is Sprague Dawley rats. The experiment can be described thus: Rat skeletal muscle injury model: macrophage phenotype immunolabeling. It is filed as in vivo. On the procedure:
An established rodent skeletal muscle injury model was used to evaluate the effect of the COX1/2 inhibitor, Aspirin, on the ECM scaffold mediated constructive remodeling response. Briefly, three days prior to the surgical procedure, animals were randomly assigned to either the Aspirin treated (3 mg/mL Aspirin in drinking water) or control (vehicle) group. Bilateral 1.5 cm×1.5 cm partial thickness defects were created in the abdominal musculature. A size-matched pre-cast UBM hydrogel and an overlying 2×2 cm single layer sheet of UBM was then placed in the muscle defect area. The remodeling response was evaluated following 3, 7, 14, and 35 days by quantitative histomorphologic metrics (Wolf M T, Carruthers […], Crapo P M, Huber A, Burnsed O A, Londono R, Johnson […] and others. Polypropylene surgical mesh coated with extracellular matrix mitigates the host foreign body response. J Biomed Mater Res A 2013 and Wolf […], Brennan-Pierce E P, Johnson S A, Carruthers […] hydrogel derived from decellularized dermal extracellular matrix. Biomaterials 2012;33(29):7028-38), including characterization of macrophage phenotype and neo tissue deposition. Thirty-two female Sprague Dawley rats (350-400 g at implantation) were purchased from Harlan Laboratories. Rats were housed on a 12 hour light-dark cycle and fed standard laboratory chow and water ad libitum. Animals were randomly assigned to either the Aspirin treated or control (vehicle) group. Three days prior to surgery, animals in the Aspirin group had their drinking water supplemented with 3 mg/mL Aspirin which was continued throughout the experimental time course. […] Salicylates in whole blood were determined using the Salicylates Detection Kit from Neogen according to the manufacturer's instructions. […] CD206 and CD86: Cellular expression of markers of macrophage polarization (CD206 and CD86) were determined by immunolabeling using previously described methods ([…], Londono […], Carruthers […]. Preparation and characterization of a biologic scaffold from esophageal mucosa. Biomaterials 2013;34(28):6729-37). […]

The subject of experiment [2] is primary rat bone marrow derived macrophages. In words: PGE2 secretion in primary BMDM. The class given is cell-based. To be noted: UBM hydrogel 0.5 mg/mL 48 hours; inhibitor pre-treatment 1 hour. The protocol: Rat bone marrow mononuclear cells were matured to macrophages as previously described ([…], Forster O. Differentiation of rat bone marrow cells into macrophages under the influence of mouse L929 cell supernatant. J Leukoc Biol 1987;41(1):83-91). […] The cell pellet was resuspended in red blood cell (RBC) lysis buffer (155 mM NH4Cl, 10 mM KHCO3, 0.9% EDTA in distilled water) and incubated for 15 minutes on ice. Cell debris was removed by centrifugation and the cell pellet was resuspended in macrophage maturation media (DMEM high glucose, 10% heat inactivated FBS, 20% L929 fibroblast conditioned media, 0.5 mM MEM non-essential amino acids, 2 mM L-glutamine, 10 mM Hepes pH 7.4, 1% penicillin/streptomycin, 0.12% 50 mM 2-mercaptoethanol). Cells were seeded at a density of 1 million/mL in 6 well plates and incubated at 37° C./5% CO2. Media was changed every 2-3 days for 7 days. Matured bone marrow derived macrophages (BMDMs) were treated with 1 mL of StemPro® Accutase® (Invitrogen), incubated at 37° C. for 10 minutes, and detached with gentle pipetting. The cell suspension was collected and centrifuged for 5 mins at 1400 rpm. […] Secreted factor concentrations in the culture supernatants were determined using commercially available ELISA kits (PGE2, PGF2α, ENZO Life Sciences) and IL-1RA (R&D Systems)) according to the manufacturer's instructions.

Where [3] appears, read: vs non-Aspirin treated animals throughout the time course.

Molecules are shown by their SMILES.

`CC(=O)Oc1ccccc1C(=O)O` [Aspirin]: in experiment [1] (main effect for treatment, UBM implant), the “M2:M1 ratio (CD68+CD206+ to CD68+CD86+ cells)” value is reported as “reduction in the M2:M1 ratio”. For the same compound, in experiment [1] (setting [3]), the “M1 (CD86+) macrophages” value is “increase in M1 (CD86+) macrophages” and the “M2 (CD206+) macrophages” value is “reduction in M2 (CD206+)”. The PGE2 production entry in experiment [2] was “reduced PGE2 production to baseline levels”.
